Measurements: the NIST ThermoML archive (doi:10.1021/je800653d)

Legend:
[1] = 101 kPa, Liquid; for speed of sound: Linear variable-path acoustic interferometer; for viscosity: Capillary tube (Ostwald / Ubbelohde) method
[2] = xn = mol fraction of the nth substance listed; details: 101 kPa, Liquid, x2 = 0; for speed of sound: Linear variable-path acoustic interferometer; for viscosity: Capillary tube (Ostwald / Ubbelohde) method

CCCOC(C)=O [propyl ethanoate]
[1]
Details	mass density [kg/m3]	speed of sound [m/s]	viscosity [mPa·s]
298.15 K	883.7	1156	–
303.15 K	877.7	1149	0.4878
308.15 K	873.1	1139	0.4595
313.15 K	866.7	1126	0.4329

CCOC(C)=O [ethyl acetate] + O=S1(=O)CCCC1
[2]
Details	mass density [kg/m3]	speed of sound [m/s]	viscosity [mPa·s]
298.15 K	895.1	1142	–
303.15 K	889.4	1122	0.3806
308.15 K	883.9	1101	0.3622
313.15 K	875.8	1082	0.3426

CCCCOC(C)=O [butyl ethanoate]
[1]
Details	mass density [kg/m3]	speed of sound [m/s]	viscosity [mPa·s]
298.15 K	875.6	1203	–
303.15 K	871.6	1176	0.6072
308.15 K	867.1	1155	0.5687
313.15 K	862	1135	0.534

CCOC(C)=O [ethyl acetate]
[1]
Details	mass density [kg/m3]	speed of sound [m/s]	viscosity [mPa·s]
298.15 K	895.1	1142	–
303.15 K	889.4	1122	0.3806
308.15 K	883.9	1101	0.3622
313.15 K	875.8	1082	0.3426

O=S1(=O)CCCC1 [sulfolane]
[1]
Details	mass density [kg/m3]	speed of sound [m/s]	viscosity [mPa·s]
298.15 K	1263.9	1601	–
303.15 K	1261.8	1588	10.03
308.15 K	1257	1576	8.795
313.15 K	1251.6	1558	7.837

CCCCOC(C)=O [butyl ethanoate] + O=S1(=O)CCCC1
[2]
Details	mass density [kg/m3]	speed of sound [m/s]	viscosity [mPa·s]
298.15 K	875.6	1203	–
303.15 K	871.6	1176	0.6072
308.15 K	867.1	1155	0.5687
313.15 K	862	1135	0.534

CCCOC(C)=O [propyl ethanoate] + O=S1(=O)CCCC1
[2]
Details	mass density [kg/m3]	speed of sound [m/s]	viscosity [mPa·s]
298.15 K	883.7	1156	–
303.15 K	877.7	1149	0.4878
308.15 K	873.1	1139	0.4595
313.15 K	866.7	1126	0.4329
